Patent publication US8569379B2 (Teva Pharmaceutical Industries Ltd., priority 2010, dated 2013)
Like-named read-outs stand apart in the source and are kept apart here.

Legend:
[1] = system: Wild type (WT) mice; settings: strong intensity
Excerpt: (§1) The experiment was further subdivided into two levels of odor intensity:
(§2) Light intensity: two days of odor impregnation
(§3) Strong intensity: seven days of odor impregnation
(§4) The testing parameter was percentage of time of sniffing novel odor out of total time of sniffing.

[2] = system: transgenic mouse models for the study of olfactory loss
Excerpt: (Lane et al., “Development of transgenic mouse models for the study of human olfactory dysfunction”, Am J. Rhinol., 2005, May-June; 19(3):229-35.)

[3] = system: Wild type (WT) mice; settings: WT mice receiving rasagiline; group mean, n = 9
Excerpt: The objective was to determine whether the odor discrimination deficit was specific to the olfactory function (FIG. 7A).
The testing parameters was percentage of time exploring the novel object/odor out of total time of exploration.

[4] = system: alpha-synuclein over-expressing (mutants) mice (Thy1-aSyn)
Excerpt: Transgenic mice overexpressing alpha-synuclein under the Thy1 promoter (Thy1-aSyn) have high levels of alpha-synuclein expression throughout the brain but no loss of nigrostriatal dopamine neurons up to 8 months. […] Overexpression of alpha-synuclein is sufficient to cause olfactory deficits in mice similar to that observed in patients with PD (2). […] The objective was to determine whether the odor discrimination deficit was specific to the olfactory function (FIG. 7A). The testing parameters was percentage of time exploring the novel object/odor out of total time of exploration.

[5] = system: alpha-synuclein over-expressing (mutants) mice (Thy1-aSyn); settings: α-syn mutants receiving rasagiline; group mean, n = 19
Excerpt: (§5) Transgenic mice overexpressing alpha-synuclein under the Thy1 promoter (Thy1-aSyn) have high levels of alpha-synuclein expression throughout the brain but no loss of nigrostriatal dopamine neurons up to 8 months. […] Overexpression of alpha-synuclein is sufficient to cause olfactory deficits in mice similar to that observed in patients with PD (2).
(§6) The time periods that mice spent sniffing lemon and lime were compared. The testing parameters were percentage of time of sniffing lemon out of total time of sniffing and percentage of time of sniffing lime out of total time of sniffing.

[6] = system: Wild type (WT) mice; settings: WT mice receiving rasagiline, group mean, n = 18
Excerpt: In this experiment, lemon odor served as a familiar odor (F), and lime—as a novel odor (N) (FIG. 4A). Mice capable of discriminating between the odors will spend more time sniffing the new odor. The testing parameter was percentage of time of sniffing novel odor out of total time of sniffing.

[7] = system: alpha-synuclein over-expressing (mutants) mice (Thy1-aSyn); remark: listed apart in the source
Excerpt: as §5
Odor detection threshold is the lowest concentration (dilution 10^−8; 10^−6; 10^−4 in the water) at which mice are able to detect a novel odor. Upon detection of a novel odor, mice will spend more time sniffing it. The detection threshold was measured as percentage of time sniffing novel odor out of total time of sniffing.

[8] = system: alpha-synuclein over-expressing (mutants) mice (Thy1-aSyn); remark: listed apart in the source
Excerpt: as §5, §1, §2, §3, §4

[9] = system: Wild type (WT) mice; settings: for Time of exploration: novel object; for Time of exploration / % Time exploring novel object: WT mice receiving rasagiline, individual mice, Mean row = group mean (n = 9); for % Time exploring novel object: out of total time of the trial
Excerpt: (§7) The testing parameters were percentage of time exploring the novel object out of total time of the trial.

[10] = system: alpha-synuclein over-expressing (mutants) mice (Thy1-aSyn); remark: listed apart in the source
Excerpt: as §5, §7

[11] = system: Wild type (WT) mice; settings: WT mice receiving rasagiline; group mean, n = 18
Excerpt: as §6

[12] = system: alpha-synuclein over-expressing (mutants) mice (Thy1-aSyn); remark: listed apart in the source
Excerpt: Transgenic mice overexpressing alpha-synuclein under the Thy1 promoter (Thy1-aSyn) have high levels of alpha-synuclein expression throughout the brain but no loss of nigrostriatal dopamine neurons up to 8 months. […] Overexpression of alpha-synuclein is sufficient to cause olfactory deficits in mice similar to that observed in patients with PD (2). […] In this experiment, lemon odor served as a familiar odor (F), and lime—as a novel odor (N) (FIG. 4A). Mice capable of discriminating between the odors will spend more time sniffing the new odor. The testing parameter was percentage of time of sniffing novel odor out of total time of sniffing.

[13] = system: alpha-synuclein over-expressing (mutants) mice (Thy1-aSyn); settings: α-syn mutants; in particular at the 1.5 min interval
Excerpt: as §5
(§8) The underlying principle was that if mice would spend less time sniffing the odor at T2 (second exposure to the odor) their short term olfactory memory is intact. The testing parameter was percentage of time of sniffing at T2, calculated as time of sniffing at T2 out of total time of sniffing at T1 (first exposure) & T2.

[14] = system: Wild type (WT) mice
Excerpt: as §8

[15] = α-syn mutants receiving rasagiline, group mean, n = 9
[16] = non-social odors, N = lime (novel)
[17] = strong social odors, α-syn mutants receiving rasagiline, group mean, n = 20
[18] = non-social odors, N = lime (novel), α-syn mutants receiving rasagiline, group mean, n = 20

C#CCN[C@@H]1CCc2ccccc21 [Rasagiline, R(+)-N-propargyl-1-aminoindan]
discrimination of strong social odor [1]: improves discrimination of strong social odor | treating the symptoms of olfactory dysfunction ([2]; each of two transgenic mouse models): effective in treating the symptoms of olfactory dysfunction | functional decline ([2]; transgenic mouse models): effective in reducing the functional decline | rate of progression of olfactory dysfunction ([2]; transgenic mouse models): effective in reducing the rate of progression of olfactory dysfunction | % Time exploring novel object [3]: 96.2% | Time of Exploration (s) Familiar object [3]: 3.0 s | Time of Exploration (s) Novel object [3]: 85.0 s | Time of Exploration (s) Total [3]: 88.0 s | novel object/odor discrimination ability ([4]; α-syn mutants): improves the discrimination ability of the mutants to substantially WT levels | % Time exploring novel object [4, 15]: 92.2% | Time of Exploration (s) Familiar object [4, 15]: 3.6 s | Time of Exploration (s) Novel object [4, 15]: 48.7 s | Time of Exploration (s) Total [4, 15]: 52.4 s | % Time sniffing Lime [5]: 52.6% | Time of sniffing (s) Lemon [5]: 6.1 s | Time of sniffing (s) Lime [5]: 8.7 s | Time of sniffing (s) Total [5]: 14.9 s | Total time sniffing ([6]; non-social odors lemon/lime): 42.5 | Time Sniffing F ([6]; non-social odors, F = lemon (familiar)): 11.9 | % time sniffing N [6, 16]: 72.1% | Time Sniffing N [6, 16]: 30.6 | odor threshold (lowest odor dilution detected) ([7]; α-syn mutants with rasagiline, untreated mutants 10^−4, dilution in water): 10^6 | odor detection ability ([7]; α-syn mutants, odor concentration 10^−6): improved the odor detection ability of α-syn mutants | Time Sniffing F [8, 17]: 3.1 | Total time sniffing [8, 17]: 12.4 | discrimination of light social odor ([8]; α-syn mutants, light intensity): improves discrimination of light social odor | discrimination of strong social odor ([8]; α-syn mutants, strong intensity): improves discrimination of strong social odor | effect on novel object exploration ([9]; WT mice): no effect on novel object exploration | Time of exploration ([9]; listed as Rasagilina): 100.0 s | Time of exploration ([9]; listed as Rasagilins): 115.1 s | % Time exploring novel object ([9]; listed as Rasagilina): 33.3% | % Time exploring novel object ([9]; listed as Rasagilins): 38.4% | Time of exploration ([10]; novel object, α-syn mutants receiving rasagiline, group mean, n = 11): 79.3 s | % Time exploring novel object ([10]; out of total time of the trial, α-syn mutants receiving rasagiline, group mean, n = 11): 26.4% | effect on novel object exploration ([10]; α-syn mutants): no effect on novel object exploration | % Time sniffing Lemon [11]: 52.9% | % Time sniffing Lime [11]: 47.1% | Time of sniffing (s) Lemon [11]: 25.9 s | Time of sniffing (s) Lime [11]: 23.3 s | Time of sniffing (s) Total [11]: 49.2 s | Total time sniffing ([12]; non-social odors lemon/lime, α-syn mutants receiving rasagiline, group mean, n = 20): 14.8 | Time Sniffing F ([12]; non-social odors, F = lemon (familiar), α-syn mutants receiving rasagiline, group mean, n = 20): 3.7 | % time sniffing N [12, 18]: 70.2% | Time Sniffing N [12, 18]: 11.2 | discrimination of two close non-social odors ([12]; α-syn mutant mice, lemon (familiar) vs lime (novel)): improves discrimination of two close non-social odors | effect on short term olfactory memory [13]: positive effect on short term olfactory memory | short-term olfactory memory compared to WT-water ([14]; ITI of 2 min): reduced short-term olfactory memory compared to WT-water | effect on short term olfactory memory ([14]; in particular at the 1.5 min interval): positive effect on short term olfactory memory
